PMC7979765, “trans-Translation inhibitors bind to a novel site on the ribosome and clear Neisseria gonorrhoeae in vivo” (Nature Communications, 2021)
≈ marks a conversion by molar mass, not a printed value. Where two headings read alike, the source gives them in different places.

What was measured:
[1] = target: T1, hERG potassium channel (Homo sapiens, UniProt Q12809); assay: Receptor Profiling 265910; format: binding; details: probe [3H]dofetilide
T1 construct: purchased Eurofins Discovery Services (Panlabs safety panel)
Procedure: (§1) Several in vitro selectivity assays were performed at Eurofins Discovery Services using established methods and controls that behaved as expected (Supplementary Tables 5 and 6). […] For receptor panel profiling, MBX-4132 was evaluated at 10 μM and activity of >50% (agonist or antagonist; note that negative % inhibition indicates agonism) was scored as active.

[2] = target: T2, Nav1.5 (Homo sapiens, UniProt Q14524); assay: Cardiac Ion Channel Panel; format: cell-based
T2 construct: Eurofins Discovery Services (contract assay) CYL8004QP2DR; CYL7004QP1DR; CYL7004QP2DR
Procedure: as §1

[3] = target: T3, Nav1.5 late current (Homo sapiens, UniProt Q14524); assay: Cardiac Ion Channel Panel; format: cell-based
T3 construct: Eurofins Discovery Services (contract assay) CYL8004QP2DR; CYL7004QP1DR; CYL7004QP2DR
T3 sequence (Q14524 whole entry): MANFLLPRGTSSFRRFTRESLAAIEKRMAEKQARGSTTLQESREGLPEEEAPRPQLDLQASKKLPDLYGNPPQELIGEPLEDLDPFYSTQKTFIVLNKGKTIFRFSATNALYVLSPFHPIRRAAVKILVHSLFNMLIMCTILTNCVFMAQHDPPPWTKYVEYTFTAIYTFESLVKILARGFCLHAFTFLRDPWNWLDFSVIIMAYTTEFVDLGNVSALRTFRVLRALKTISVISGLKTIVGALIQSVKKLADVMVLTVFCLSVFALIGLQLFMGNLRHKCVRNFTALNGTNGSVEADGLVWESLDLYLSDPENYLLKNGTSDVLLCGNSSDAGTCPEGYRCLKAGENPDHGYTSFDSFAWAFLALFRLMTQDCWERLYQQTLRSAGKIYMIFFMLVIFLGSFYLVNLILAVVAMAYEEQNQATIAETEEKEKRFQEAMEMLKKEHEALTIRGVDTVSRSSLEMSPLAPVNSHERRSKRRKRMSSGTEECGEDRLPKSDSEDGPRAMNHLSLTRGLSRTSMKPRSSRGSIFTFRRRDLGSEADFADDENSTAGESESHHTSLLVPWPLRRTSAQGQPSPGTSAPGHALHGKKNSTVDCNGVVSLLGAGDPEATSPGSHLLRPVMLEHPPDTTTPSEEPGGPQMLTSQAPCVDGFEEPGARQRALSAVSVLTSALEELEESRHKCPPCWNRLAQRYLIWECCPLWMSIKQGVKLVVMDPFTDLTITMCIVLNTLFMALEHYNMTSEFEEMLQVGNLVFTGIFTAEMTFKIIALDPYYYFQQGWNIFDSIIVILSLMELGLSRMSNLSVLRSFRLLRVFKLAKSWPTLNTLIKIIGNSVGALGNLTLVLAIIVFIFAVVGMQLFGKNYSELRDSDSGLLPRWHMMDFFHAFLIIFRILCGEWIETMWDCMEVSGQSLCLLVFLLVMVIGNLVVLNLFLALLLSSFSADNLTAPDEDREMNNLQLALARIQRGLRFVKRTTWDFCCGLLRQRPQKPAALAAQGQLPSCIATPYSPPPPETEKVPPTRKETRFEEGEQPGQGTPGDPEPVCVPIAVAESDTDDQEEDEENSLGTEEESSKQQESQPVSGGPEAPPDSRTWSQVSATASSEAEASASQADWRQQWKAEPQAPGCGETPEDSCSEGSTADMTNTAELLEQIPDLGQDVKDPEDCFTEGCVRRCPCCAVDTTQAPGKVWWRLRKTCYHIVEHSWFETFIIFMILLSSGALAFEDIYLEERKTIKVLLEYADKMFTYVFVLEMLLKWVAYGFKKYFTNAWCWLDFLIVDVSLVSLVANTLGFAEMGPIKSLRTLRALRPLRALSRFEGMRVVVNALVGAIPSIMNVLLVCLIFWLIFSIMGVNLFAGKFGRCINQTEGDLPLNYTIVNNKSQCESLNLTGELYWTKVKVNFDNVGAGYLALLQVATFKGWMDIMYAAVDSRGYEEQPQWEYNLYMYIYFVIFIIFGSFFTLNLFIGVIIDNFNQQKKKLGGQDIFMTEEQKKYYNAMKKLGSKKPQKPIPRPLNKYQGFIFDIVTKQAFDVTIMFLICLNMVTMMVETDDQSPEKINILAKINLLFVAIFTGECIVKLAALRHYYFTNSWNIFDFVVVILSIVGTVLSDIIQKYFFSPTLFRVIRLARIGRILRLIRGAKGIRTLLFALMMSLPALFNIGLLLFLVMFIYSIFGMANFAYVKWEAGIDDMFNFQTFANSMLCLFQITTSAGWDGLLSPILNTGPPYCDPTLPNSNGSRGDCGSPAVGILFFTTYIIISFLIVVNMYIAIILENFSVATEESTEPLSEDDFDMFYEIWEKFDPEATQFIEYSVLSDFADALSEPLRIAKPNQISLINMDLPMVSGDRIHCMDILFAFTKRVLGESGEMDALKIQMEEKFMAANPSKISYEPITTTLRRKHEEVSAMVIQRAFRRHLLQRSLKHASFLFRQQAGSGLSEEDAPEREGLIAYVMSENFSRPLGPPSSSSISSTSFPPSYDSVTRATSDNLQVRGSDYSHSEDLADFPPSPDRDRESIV
Procedure: as §1

[4] = target: T4, Kir2.1 (Homo sapiens, UniProt P63252); assay: Cardiac Ion Channel Panel; format: cell-based; details: Kir2.1 antagonist; Peak $ End; CYL8032QP2DR; read-out: IC50 (µM) reported
T4 construct: Eurofins Discovery Services (contract assay) CYL8032QP2DR
T4 sequence (P63252 whole entry): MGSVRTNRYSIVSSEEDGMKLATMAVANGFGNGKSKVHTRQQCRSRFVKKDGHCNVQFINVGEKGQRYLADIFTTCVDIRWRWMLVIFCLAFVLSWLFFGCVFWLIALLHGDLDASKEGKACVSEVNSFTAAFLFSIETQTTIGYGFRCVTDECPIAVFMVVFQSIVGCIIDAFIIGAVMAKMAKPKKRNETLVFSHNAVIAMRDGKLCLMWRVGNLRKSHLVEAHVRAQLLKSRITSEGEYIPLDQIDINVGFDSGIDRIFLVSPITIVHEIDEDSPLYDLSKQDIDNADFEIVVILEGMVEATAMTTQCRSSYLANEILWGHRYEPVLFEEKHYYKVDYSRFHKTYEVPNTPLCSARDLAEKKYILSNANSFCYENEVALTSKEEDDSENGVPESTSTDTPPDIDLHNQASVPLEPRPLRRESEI
Procedure: as §1

[5] = target: T5, hERG (Homo sapiens, UniProt Q12809); assay: Cardiac Ion Channel Panel; format: cell-based; details: hERG antagonist; CYL8038QP2DR; read-out: IC50 (µM) reported
T5 construct: Eurofins Discovery Services (contract assay) CYL8038QP2DR
T5 sequence (Q12809 whole entry): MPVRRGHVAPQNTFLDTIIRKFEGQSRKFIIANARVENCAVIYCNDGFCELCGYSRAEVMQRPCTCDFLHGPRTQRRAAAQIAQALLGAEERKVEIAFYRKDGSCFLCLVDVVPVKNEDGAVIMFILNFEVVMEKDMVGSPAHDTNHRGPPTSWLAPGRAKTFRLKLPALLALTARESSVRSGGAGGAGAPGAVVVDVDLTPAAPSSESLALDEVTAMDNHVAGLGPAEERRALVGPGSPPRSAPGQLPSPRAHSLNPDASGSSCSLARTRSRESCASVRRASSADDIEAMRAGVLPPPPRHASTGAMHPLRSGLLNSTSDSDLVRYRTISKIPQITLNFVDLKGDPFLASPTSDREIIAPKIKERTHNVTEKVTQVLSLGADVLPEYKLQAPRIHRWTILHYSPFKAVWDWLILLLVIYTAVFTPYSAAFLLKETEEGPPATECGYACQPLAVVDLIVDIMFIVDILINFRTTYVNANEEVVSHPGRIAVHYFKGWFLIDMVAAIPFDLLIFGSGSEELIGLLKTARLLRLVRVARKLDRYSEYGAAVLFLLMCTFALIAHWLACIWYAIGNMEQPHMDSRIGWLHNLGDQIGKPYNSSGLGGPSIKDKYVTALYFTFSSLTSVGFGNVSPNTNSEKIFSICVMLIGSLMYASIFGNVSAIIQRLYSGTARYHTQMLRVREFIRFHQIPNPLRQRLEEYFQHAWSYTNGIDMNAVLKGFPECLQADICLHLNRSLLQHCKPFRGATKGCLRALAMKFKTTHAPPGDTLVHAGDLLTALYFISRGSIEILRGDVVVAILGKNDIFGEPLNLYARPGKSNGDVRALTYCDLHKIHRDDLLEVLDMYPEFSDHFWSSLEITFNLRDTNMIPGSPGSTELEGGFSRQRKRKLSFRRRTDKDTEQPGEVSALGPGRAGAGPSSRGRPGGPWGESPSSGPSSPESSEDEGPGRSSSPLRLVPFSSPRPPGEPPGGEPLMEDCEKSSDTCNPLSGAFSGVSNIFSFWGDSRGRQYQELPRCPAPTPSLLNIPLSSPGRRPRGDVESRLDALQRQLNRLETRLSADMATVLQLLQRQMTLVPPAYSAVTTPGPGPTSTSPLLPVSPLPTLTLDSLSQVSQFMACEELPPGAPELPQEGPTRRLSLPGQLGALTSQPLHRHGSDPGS
Procedure: as §1

[6] = target: T6, Kv4.3/ChIP2 (Homo sapiens, UniProt Q9UK17); assay: Cardiac Ion Channel Panel; format: cell-based; details: Kv4.3/ChIP2 antagonist; Peak $ End; CYL8069QP2DR; read-out: IC50 (µM) reported
T6 construct: Eurofins Discovery Services (contract assay) CYL8069QP2DR
Procedure: as §1

[7] = target: CYP3A (Homo sapiens, UniProt P08684); assay: Cyp inhibition assays 4873, 4872; format: in vitro ADME
Chain of CYP3A (P08684 2-503): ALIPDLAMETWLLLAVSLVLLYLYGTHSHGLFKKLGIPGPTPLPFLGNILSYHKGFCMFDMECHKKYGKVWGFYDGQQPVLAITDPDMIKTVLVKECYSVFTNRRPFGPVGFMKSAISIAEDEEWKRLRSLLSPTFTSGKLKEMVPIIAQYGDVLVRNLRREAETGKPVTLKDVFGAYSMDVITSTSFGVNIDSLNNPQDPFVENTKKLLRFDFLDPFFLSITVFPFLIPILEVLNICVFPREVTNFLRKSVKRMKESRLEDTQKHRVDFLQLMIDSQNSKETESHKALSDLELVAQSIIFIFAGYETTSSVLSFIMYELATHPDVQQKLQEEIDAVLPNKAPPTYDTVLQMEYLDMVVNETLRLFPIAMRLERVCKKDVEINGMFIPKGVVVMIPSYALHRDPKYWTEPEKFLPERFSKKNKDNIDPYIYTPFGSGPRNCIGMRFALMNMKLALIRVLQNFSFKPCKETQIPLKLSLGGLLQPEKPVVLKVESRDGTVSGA
Procedure: as §1

[8] = target: T7, Serotonin (5-hydroxytryptamine) 5-HT2B (Homo sapiens, UniProt P41595); assay: Receptor Profiling 271700; format: binding
T7 construct: Eurofins Discovery Services (contract assay) 271700
Procedure: as §1

[9] = mouse
[10] = system: Legionella pneumophila; assay: microbe, parasite or virus in culture; format: cell-based
[11] = target: T8, Monoamine Oxidase MAO-A (Homo sapiens, UniProt P21397); assay: Receptor Profiling 140010; format: biochemical; details: negative % inhibition indicates agonism
T8 construct: Eurofins Discovery Services (contract assay) 140010
Procedure: as §1

[12] = system: reactive oxygen species (ROS) generation; assay: Multiplexed cytotoxicity assay (nuclei, ROS, TMRE); format: cell-based, human; details: human, primary hepatocytes, 24 h
Procedure: (§2) Multiplexed cytotoxicity assay — Human primary hepatocytes were grown on collagen I coated optical plates, cultured in hepatocytes culture media in a humidified 5% CO2 atmosphere at 37 °C. Cells were incubated in the presence of MBX-4132 at 10 concentrations starting a 100 µM and serially diluted 3.16-fold for 24 h at 37 °C, incubated for 30 min with multiplexed fluorescent dyes (Hoescht, 6-carboxy-2’,7’-dichlorodihydrofluorescein diazetat, and TMRE) and imaged to allow visualization of nuclei, reactive oxygen species generation, and mitochondrial oxidation. A >3.5-fold induction of ROS was considered consistent with formation of ROS and a >2-fold change in TMRE signal indicated an increase or decrease in mitochondrial membrane potential.

[13] = system: mitochondrial membrane potential (MMP, TMRE signal); assay: Multiplexed cytotoxicity assay (nuclei, ROS, TMRE); format: cell-based, human; details: human, primary hepatocytes, 24 h, read-out: MMP inhibition (fold induction)
Procedure: as §2

[14] = Multiplexed cytotoxicity assay (nuclei, ROS, TMRE); format: cell-based, human; details: human, human primary hepatocytes; for fold induction at 24 h, 1 μM: 1.00E+00 μM; for fold induction at 24 h, 10 μM: 1.00E+01 μM; for fold induction at 24 h, 100 μM: 1.00E+02 μM; for fold induction at 24 h, 0.1 μM: 1.00E-01 μM; for fold induction at 24 h, 0.0101 μM: 1.01E-02 μM; for fold induction at 24 h, 31.6 μM: 3.16E+01 μM; for fold induction at 24 h, 3.17 μM: 3.17E+00 μM; for fold induction at 24 h, 0.317 μM: 3.17E-01 μM; for fold induction at 24 h, 0.0318 μM: 3.18E-02 μM; for fold induction at 24 h, 0.00318 μM: 3.18E-03 μM
Procedure: as §2

[15] = target: T9, Phosphodiesterase PDE4D2 (Homo sapiens, UniProt Q08499); assay: Receptor Profiling 154420; format: biochemical
T9 construct: Eurofins Discovery Services (contract assay) 154420
Procedure: as §1

[16] = target: T10, Serotonin (5-hydroxytryptamine) 5-HT1B (Homo sapiens, UniProt P28222); assay: Receptor Profiling 271230; format: binding
T10 construct: purchased Eurofins Discovery Services (Panlabs safety panel)
T10 sequence (P28222 whole entry): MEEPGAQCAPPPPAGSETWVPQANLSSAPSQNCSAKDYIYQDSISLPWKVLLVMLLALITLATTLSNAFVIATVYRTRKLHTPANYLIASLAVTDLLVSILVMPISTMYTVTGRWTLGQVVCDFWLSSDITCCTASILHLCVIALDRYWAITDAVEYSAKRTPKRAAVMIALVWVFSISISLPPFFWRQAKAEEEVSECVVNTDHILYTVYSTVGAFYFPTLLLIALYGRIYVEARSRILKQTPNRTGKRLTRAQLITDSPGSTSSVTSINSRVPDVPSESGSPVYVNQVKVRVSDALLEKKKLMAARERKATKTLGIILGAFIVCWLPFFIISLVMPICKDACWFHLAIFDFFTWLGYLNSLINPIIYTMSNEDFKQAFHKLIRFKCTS
Procedure: as §1

[17] = system: Streptococcus pneumoniae; assay: MIC, microbroth dilution; format: cell-based
[18] = system: CYP450 enzymes; assay: CYP450 inhibition assays (panel statement); format: in vitro ADME, human; details: 5 concentrations from 30 nM to 100 μM
Procedure: as §1

[19] = Serum shift of MIC (+/- 10% fetal bovine serum)
[20] = system: GABAA, Flunitrazepam, Central; assay: Receptor Profiling 226600; format: binding, rat; details: 10 μM
Procedure: as §1

[21] = target: T11, CYP2C8 (Homo sapiens, UniProt P10632); assay: Cyp inhibition assay 4879; format: in vitro ADME; details: catalog reference 4879, read-out: pIC50 (µM) reported (converted)
T11 construct: Eurofins Discovery Services (contract assay) 4879
T11 sequence (P10632 whole entry): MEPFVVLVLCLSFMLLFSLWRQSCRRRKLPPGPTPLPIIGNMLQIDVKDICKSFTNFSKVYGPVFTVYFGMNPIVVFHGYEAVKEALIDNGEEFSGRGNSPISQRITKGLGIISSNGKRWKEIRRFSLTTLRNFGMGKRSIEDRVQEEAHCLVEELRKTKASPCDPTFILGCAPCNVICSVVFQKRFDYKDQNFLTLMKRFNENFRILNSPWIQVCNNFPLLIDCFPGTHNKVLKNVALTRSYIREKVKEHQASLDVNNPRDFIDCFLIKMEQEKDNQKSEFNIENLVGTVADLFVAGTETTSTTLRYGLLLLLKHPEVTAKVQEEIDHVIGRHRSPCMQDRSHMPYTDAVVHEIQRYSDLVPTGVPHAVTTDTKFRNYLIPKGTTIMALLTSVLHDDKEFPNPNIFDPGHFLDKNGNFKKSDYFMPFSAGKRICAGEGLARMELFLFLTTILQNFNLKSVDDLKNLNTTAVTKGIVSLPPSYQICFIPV
Procedure: as §1

[22] = read-out: Mean MMP inhibition (fold induction)
[23] = read-out: Mean ROS (fold induction)

Structure (SMILES): O=C(Nc1nnc(-c2ccc(F)cc2)o1)N1CCc2ccccc2C1 [MBX-4132]
- inhibition at 10 µM [1]: 27%
- IC50 [2]: > 30 µM
- IC50 [3]: > 30 µM
- IC50 ([3]; read-out: Est. IC50, Antagonist mode): > 30 µM
- IC50 ([3]; read-out: IC50 (µM) reported, Nav1.5 late current agonist, CYL7004QP1DR): > 30 µM
- IC50 ([3]; read-out: IC50 (µM) reported, Nav1.5 late current antagonist, CYL7004QP2DR): > 30 µM
- IC50 [4]: > 30 µM
- IC50 [5]: > 30 µM
- IC50 [6]: > 30 µM
- pIC50 (µM) reported ([7]; CYP3A midazolam, catalog reference 4873): No activity
- IC50 ([7]; human, probe testosterone): > 100 µM
- inhibition at 10 µM [8]: 44%
- Murine serum stability (% remaining after 1 hr) [9]: 101%
- MIC ([10]; Legionella pneumophila ATCC 33153, replicates): 8.50 µg/mL (≈ 25.1 µM)
- MIC ([10]; Legionella pneumophila, ATCC33153): 8.5 µg/mL (≈ 25.1 µM)
- inhibition at 10 µM [11]: -108%
- fold induction at 24 h, 1 μM ([12]; 1.00E+00 μM): 1.2
- fold induction at 24 h, 0.1 μM ([12]; 1.00E-01 μM): 1.4
- fold induction at 24 h, 0.0101 μM ([12]; 1.01E-02 μM): 1.4
- fold induction at 24 h, 3.17 μM ([12]; 3.17E+00 μM): 1.1
- fold induction at 24 h, 0.317 μM ([12]; 3.17E-01 μM): 1.2
- fold induction at 24 h, 0.0318 μM ([12]; 3.18E-02 μM): 0.9
- fold induction at 24 h, 1 μM ([13]; 1.00E+00 μM): 0.9
- fold induction at 24 h, 10 μM ([13]; 1.00E+01 μM): 1.1
- fold induction at 24 h, 0.1 μM ([13]; 1.00E-01 μM): 1.2
- fold induction at 24 h, 0.0101 μM ([13]; 1.01E-02 μM): 1
- fold induction at 24 h, 31.6 μM ([13]; 3.16E+01 μM): 1.1
- fold induction at 24 h, 3.17 μM ([13]; 3.17E+00 μM): 1
- fold induction at 24 h, 0.317 μM ([13]; 3.17E-01 μM): 0.9
- fold induction at 24 h, 0.0318 μM ([13]; 3.18E-02 μM): 0.9
- fold induction at 24 h, 0.00318 μM ([13]; 3.18E-03 μM): 1
- fold induction at 24 h, 1 μM [14, 22]: 0.9
- fold induction at 24 h, 1 μM [14, 23]: 1.2
- fold induction at 24 h, 10 μM [14, 22]: 1.1
- fold induction at 24 h, 10 μM [14, 23]: 1.9
- fold induction at 24 h, 100 μM [14, 22]: 0.8
- fold induction at 24 h, 100 μM [14, 23]: 9.2
- fold induction at 24 h, 0.1 μM [14, 22]: 1.2
- fold induction at 24 h, 0.1 μM [14, 23]: 1.4
- fold induction at 24 h, 0.0101 μM [14, 22]: 1
- fold induction at 24 h, 0.0101 μM [14, 23]: 1.4
- fold induction at 24 h, 31.6 μM [14, 22]: 1.1
- fold induction at 24 h, 31.6 μM [14, 23]: 1.3
- fold induction at 24 h, 3.17 μM [14, 22]: 1
- fold induction at 24 h, 3.17 μM [14, 23]: 1.1
- fold induction at 24 h, 0.317 μM [14, 22]: 0.9
- fold induction at 24 h, 0.317 μM [14, 23]: 1.2
- fold induction at 24 h, 0.0318 μM [14, 22]: 0.9
- fold induction at 24 h, 0.0318 μM [14, 23]: 0.9
- fold induction at 24 h, 0.00318 μM [14, 22]: 1
- fold induction at 24 h, 0.00318 μM [14, 23]: 3.1
- inhibition at 10 µM [15]: 3%
- inhibition at 10 µM [16]: 21%
- MIC ([17]; Streptococcus pneumoniae ATCC 49619, replicates): 34 µg/mL (≈ 100 µM)
- MIC ([17]; Streptococcus pneumoniae, ATCC49619, strain ATCC 49619, read-out: MIC): 34 µg/mL (≈ 100 µM)
- CYP450 inhibitory activity (in words) [18]: no inhibitory activity >50%
- Serum shift (fold) ([19]; Average Value): 16 fold
- serum Shift ([19]; Ratio of MIC +/- 10% fetal bovine serum added): 16
- Serum shift (fold) ([19]; Replicate 1/2): 16 fold
- % inhibition [20]: 3%
- IC50 [21]: > 100 µM
